The values below come from PubChem BioAssay (NCI).

The structures appear in SMILES notation.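 96-well plates; 48 h exposure; 5 concentrations. Endpoints by linear interpolation between flanking doses. Not reached: highest tested concentration assigned. At the GI50, growth is halved. Definition used: TGI = concentration required for complete inhibition of growth.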

Among the test systems are ACHN renal; IGROV1 ovarian; K-562 leukemia; MOLT-4 leukemia; NCI-H226 lung; OVCAR-5 ovarian; OVCAR-8 ovarian; SK-MEL-5 melanoma; TK-10 renal; U251 CNS.
Test in all cases: NCI tumour cell line growth inhibition, 48 h

With `Cn1cnc2nc(Cl)nc(NC(C)(C)C(C)(C)O)c21`, the TGI in the test with ACHN renal, in the test with IGROV1 ovarian, with K-562 leukemia, with MOLT-4 leukemia, in the test on NCI-H226 lung and in the test on OVCAR-5 ovarian was more than 100 µM each time. Further, the TGI in the test with OVCAR-8 ovarian, with SK-MEL-5 melanoma, in the test with TK-10 renal and with U251 CNS was more than 100 µM each time.
Turning to `Cc1cc2c3ccc(C)[n+](C)c3ccc2n1C`, the GI50 in the test on ACHN renal is 21.5 µM; in the test with IGROV1 ovarian, 3.14 µM; with K-562 leukemia, 1.52 µM; in the test on MOLT-4 leukemia, 3.12 µM; in the test with NCI-H226 lung, 12.9 µM; in the test with OVCAR-5 ovarian, 5.42 µM. Further, the GI50 in the test on OVCAR-8 ovarian was 1.53 µM; in the test on SK-MEL-5 melanoma it was 3.65 µM; in the test on TK-10 renal, 13 µM; in the test with U251 CNS it was 1.9 µM. In addition, the TGI in the test with ACHN renal was more than 100 µM; in the test on IGROV1 ovarian, 65.3 µM; in the test with K-562 leukemia, more than 100 µM; in the test on MOLT-4 leukemia, 27.4 µM; in the test with NCI-H226 lung it was 49.8 µM; in the test with OVCAR-5 ovarian, 44 µM. In addition, the TGI with OVCAR-8 ovarian was 29.8 µM; in the test with SK-MEL-5 melanoma it was 14.8 µM; in the test with TK-10 renal it was more than 100 µM; in the test with U251 CNS, 15.1 µM.
Turning to `O=C(C1CCCCC1)[C@@H]1[C@]2(C(=O)NC3CCCCC32)[C@@H]2CCCN2[C@@]12C(=O)NC1CCC(Cl)CC12` (some centres not stated), the GI50 in the test on ACHN renal was 103 µM; with IGROV1 ovarian, 53.2 µM; with K-562 leukemia, 41.2 µM; in the test on MOLT-4 leukemia it was 32.2 µM; in the test with NCI-H226 lung, 179 µM; in the test on OVCAR-5 ovarian it was 149 µM. Further, the GI50 in the test with OVCAR-8 ovarian is 162 µM; with SK-MEL-5 melanoma it was 110 µM; in the test on TK-10 renal, 266 µM; in the test with U251 CNS, 148 µM. Besides, the TGI with ACHN renal came out at 222 µM; in the test on IGROV1 ovarian, 202 µM; with K-562 leukemia it was 220 µM; with MOLT-4 leukemia, 213 µM; with NCI-H226 lung, 411 µM; with OVCAR-5 ovarian, 284 µM. Further, the TGI in the test on OVCAR-8 ovarian is 394 µM; with SK-MEL-5 melanoma, 234 µM; with TK-10 renal it was 448 µM; with U251 CNS, 316 µM.
In the case of `COc1ccc2cc(-c3ccoc(=O)c3-c3cc(OC)c(OC)c(OC)c3)ccc2c1`, the GI50 was 1.48 µM with ACHN renal; 0.0339 µM in the test on IGROV1 ovarian; 0.0346 µM in the test with K-562 leukemia; 0.161 µM with MOLT-4 leukemia; 6.69 µM with NCI-H226 lung; 0.369 µM with OVCAR-5 ovarian. Besides, the GI50 in the test with OVCAR-8 ovarian is 0.334 µM; in the test on SK-MEL-5 melanoma, 0.0379 µM; in the test with U251 CNS it was 0.112 µM. The TGI was more than 100 µM with ACHN renal; more than 20.6 µM with IGROV1 ovarian; more than 39.4 µM in the test on K-562 leukemia; more than 51.1 µM with MOLT-4 leukemia; more than 100 µM in the test on NCI-H226 lung; more than 100 µM in the test with OVCAR-5 ovarian. Moreover, the TGI in the test on OVCAR-8 ovarian is more than 100 µM; with SK-MEL-5 melanoma it was 4.1 µM; in the test with TK-10 renal, more than 100 µM; in the test with U251 CNS, more than 100 µM.
Regarding `O=C1C=C(Br)c2c(-c3ccccc3)oc3cccc1c23`, the TGI in the test with ACHN renal was more than 100 µM; in the test on IGROV1 ovarian, more than 100 µM; in the test on K-562 leukemia, more than 86.8 µM; in the test with MOLT-4 leukemia it was more than 67.8 µM; in the test on NCI-H226 lung, more than 100 µM; with OVCAR-5 ovarian it was more than 100 µM. The TGI in the test on OVCAR-8 ovarian is more than 100 µM; with SK-MEL-5 melanoma, more than 100 µM; with TK-10 renal it was 82.1 µM; in the test on U251 CNS, more than 100 µM.
On to `COc1cccc(C=Nc2cc(C)ccn2)c1O.COc1cccc(C=Nc2cc(C)ccn2)c1O.[Cu]`, for which the GI50 was 22.3 µM with ACHN renal; 21.4 µM in the test with IGROV1 ovarian; 18.2 µM in the test on K-562 leukemia; 10.9 µM with MOLT-4 leukemia; 9.25 µM with NCI-H226 lung; 20.2 µM with OVCAR-5 ovarian. Further, the GI50 in the test on OVCAR-8 ovarian was 20.4 µM; in the test with SK-MEL-5 melanoma, 7.39 µM; with TK-10 renal, 19.8 µM; with U251 CNS, 15.7 µM. In addition, the TGI with ACHN renal stood at 43.8 µM; in the test on IGROV1 ovarian, 48.8 µM; in the test with K-562 leukemia it was 68.1 µM; in the test with MOLT-4 leukemia, 73.4 µM; with NCI-H226 lung it was 27.2 µM; with OVCAR-5 ovarian it was 44.7 µM. In addition, the TGI in the test on OVCAR-8 ovarian worked out at 64.4 µM; in the test on SK-MEL-5 melanoma it was 20.9 µM; in the test with TK-10 renal it was 42 µM; in the test with U251 CNS it was 51.1 µM.
As to `CC(=O)NC1=C(OS(=O)(=O)c2ccc(C)cc2)CN(C)C1=O`, the TGI is 12.3 µM in the test on ACHN renal; 12.1 µM with IGROV1 ovarian; 28.3 µM with K-562 leukemia; 17.9 µM with MOLT-4 leukemia; 62.7 µM in the test with NCI-H226 lung; 32 µM in the test with OVCAR-5 ovarian. Moreover, the TGI in the test with OVCAR-8 ovarian turned out to be 20.3 µM; in the test with SK-MEL-5 melanoma it was 18.4 µM; with TK-10 renal it was 7.97 µM; in the test with U251 CNS, 8.75 µM.
On to `O=C(c1ccccc1)C(CN1CCOCC1)c1ccccc1` (configuration not stated), for which the GI50 in the test with ACHN renal is 1.3 µM; with IGROV1 ovarian it was 1.75 µM; with K-562 leukemia it was 0.355 µM; in the test on MOLT-4 leukemia, 2.24 µM; in the test on NCI-H226 lung, 2.79 µM; in the test on OVCAR-5 ovarian, 2.65 µM. Besides, the GI50 was 1.52 µM in the test on OVCAR-8 ovarian, 1.76 µM in the test on SK-MEL-5 melanoma, 1.19 µM in the test with TK-10 renal and 1.71 µM in the test on U251 CNS. Further, the TGI in the test on ACHN renal is 2.71 µM; in the test with IGROV1 ovarian, 4.24 µM; with K-562 leukemia, 3.38 µM; in the test on MOLT-4 leukemia, 6.43 µM; with NCI-H226 lung, 9.33 µM; in the test with OVCAR-5 ovarian, 5.3 µM. For the same compound, the TGI in the test on OVCAR-8 ovarian stood at 3.22 µM; in the test with SK-MEL-5 melanoma, 3.77 µM; with TK-10 renal, 2.44 µM; in the test on U251 CNS, 4.09 µM.
In the case of `C/C(=N\Nc1ccc2ccccc2n1)c1ccccn1`, the GI50 in the test on ACHN renal is less than 0.0389 µM; in the test on MOLT-4 leukemia, less than 0.0394 µM; with NCI-H226 lung it was 0.134 µM; with OVCAR-5 ovarian, 0.0832 µM; in the test on OVCAR-8 ovarian, less than 0.0492 µM; with SK-MEL-5 melanoma, 0.103 µM. Besides, the GI50 is 0.197 µM in the test on TK-10 renal and 0.0462 µM in the test with U251 CNS. Further, the TGI stood at 1.32 µM in the test with ACHN renal; 0.979 µM in the test on IGROV1 ovarian; 1.68 µM with K-562 leukemia; 0.404 µM in the test with MOLT-4 leukemia; 2.12 µM in the test with NCI-H226 lung; 14.5 µM with OVCAR-5 ovarian. In addition, the TGI in the test on OVCAR-8 ovarian was 12.8 µM; in the test on SK-MEL-5 melanoma, 2.24 µM; in the test on TK-10 renal, 16.1 µM; in the test on U251 CNS, 1.48 µM.
